Assay results from US20250382258A1, “NAPHTHALENE-TYPE COMPOUND AND PREPARATION METHOD THEREFORE AND USE THEREFORE” (DALIAN INSTITUTE OF CHEMICAL PHYSICS, CHINESE ACADEMY OF …, priority 2022, published 2025).
≈ marks a conversion by molar mass, not a printed value.

Experiment: not given
Settings: in a pH=14 aqueous solution; cited from earlier work
For `O=C1C(O)=C(C2=C(O)C(=O)c3ccccc3C2=O)C(=O)c2ccccc21` [bilawsone], the solubility is given as 560 mM (≈ 194 mg/mL).

Experiment: water solubility under acidic conditions
Assay type: physicochemical
Settings: not given
With “2,2′,6,6′-tetrabenzylamine-5,5′-dihydroxy-1,1′-dicarbonylbinaphthalene” the “water solubility under acidic conditions” value was “approximately 2 M”. With `Oc1c(NCc2ccccc2)cc(NCc2ccccc2)c2c(O)c(NCc3ccccc3)cc(NCc3ccccc3)c12` [2,4,6,8-Tetrabenzylamine-1,5-naphthalenediol] the “water solubility under acidic conditions” value was “lower than 1 M”. In the case of `Oc1c(NCc2ccccc2)ccc2c(O)c(NCc3ccccc3)ccc12` [2,6-Dibenzylamine-1,5-naphthalenediol], the “water solubility under acidic conditions” value is reported as “lower than 5 mM”. For `O=C1C(NCc2ccccc2)=C(O)C(=O)c2c(O)c(NCc3ccccc3)cc(NCc3ccccc3)c21` [3,5,7-tribenzylamine-2,8-dihydroxy-1,4-dicarbonylnaphthalene], the “water solubility under acidic conditions” value was “approximately 1.6 M”. In the case of `O=C1C(O)=C(NCc2ccccc2)C(=O)c2ccccc21` [3-benzylamine-2-hydroxy-1,4-dicarbonylnaphthalene], the “water solubility under acidic conditions” value is reported as “approximately 1 M”.
